In patent US7026505B2, “Method of treating tinnitus” (Warner-Lambert Company, priority 2002, dated 2006):
Structures can show the parent of a compound that is named as a salt.

Compared with `CS(=O)(=O)NCCC1(CN)CCCCC1.Cl`, `Cl.NCC1(Cc2noc(=S)[nH]2)CCCCC1` is higher in melting point: 196 to 199 °C for the first, 210 to 212 °C for the second.

Compared with `CC(C)CC(CN)Cc1noc(=S)[nH]1.Cl` (stereo not shown), `CCCC(C(C)C)C(CN)CC(=O)O` (stereo not shown) (as salt: HCl) is lower in melting point: 183 to 185 °C for the first, 160 to 170 °C for the second.
